Results reported in patent US20140228349A1, “5,7-SUBSTITUTED-IMIDAZO[1,2-C]PYRIMIDINES” (Array BioPharma Inc., priority 2011, published 2014).

Tests used:
Format in all cases: biochemical
JAK2 = biological target: T1, JAK2 (Homo sapiens, UniProt O60674); assay: JAK2 Inhibition Assay (Omnia kinase fluorescence peptide substrate); conditions: averaged IC50 ranges; 25 μM (Km app) or 1 mM ATP, 5 nM JAK2
T1 construct: purchased Invitrogen Corporation, Carlsbad, Calif; IVGN PV4288
Text: (§1) The assays described in Examples A, B, C and D for the determination of Tyk2, JAK1, JAK2 and JAK3 kinase activity, respectively, utilized the Omnia® Kinase fluorescence peptide substrate-based technology (Invitrogen). The specific components of the assay mixture are described in Examples A, B, C and D. In these assays, Mg^2+ is chelated upon phosphorylation of the Omnia peptide by the kinase to form a bridge between the chelation-enhanced fluorophore Sox and the phosphate, resulting in an increase in fluorescence emission at 485 nm when excited at […]. The reactions were therefore read at excitation 360 nm and emission was measured at 485 nm every 50 seconds for 45 minutes using a PerkinElmer EnVision Multilabel Plate Reader.
(§2) The final buffer conditions for Tyk2, JAK1, JAK2, and JAK3 assays were as follows: 25 mM HEPES, pH 7.4, 10 mM MgCl2, 0.01% Triton X-100 and 1 mM DTT.
(§3) Compounds were prepared at 50× the final concentration in DMSO by conducting 3-fold serial dilutions from a 500-μM intermediate dilution to give a 10-point dosing curve having a high dose of 10 μM. Two-μL aliquots of these were transferred to a fresh plate for a ten-fold intermediate dilution with assay buffer. Five-μL aliquots of the diluted compounds were then transferred to 20-μL of assay mixtures described in Examples A, B, C and D for a final concentration of DMSO of 2%. A standard or reference compound was typically included on each assay plate to validate that plate. For each plate, percent of control (POC) values were calculated for each well according to the following equation: […]
(§4) IC50's were estimated from the POC's using a standard 4-parameter logistic model:
(§5) The IC50 is defined as the concentration of inhibitor at which the POC equals 50 for the fitted curve.
(§6) Compounds of Formula I were screened for their ability to inhibit JAK2 using the general enzyme inhibition assay method, in which the assay mixture contained 25 μM (Km app) or 1 mM ATP, 10 μM Omnia® Y7 peptide (Catalog #IVGN KNZ3071C, Invitrogen Corporation, Carlsbad, Calif.) and 5 nM JAK2 in a total volume of 20 μL. JAK2 was purchased from Invitrogen Corporation, Carlsbad, Calif. (catalog #IVGN PV4288).

JAK3 = biological target: T2, JAK3 (Homo sapiens, UniProt P52333); assay: JAK3 Inhibition Assay (Omnia kinase fluorescence peptide substrate); conditions: averaged IC50 ranges; 10 μM (Km app) or 1 mM ATP, 2.5 nM JAK3
T2 construct: purchased Invitrogen Corporation, Carlsbad, Calif; IVGN PV4080
T2 sequence (P52333 1-1124): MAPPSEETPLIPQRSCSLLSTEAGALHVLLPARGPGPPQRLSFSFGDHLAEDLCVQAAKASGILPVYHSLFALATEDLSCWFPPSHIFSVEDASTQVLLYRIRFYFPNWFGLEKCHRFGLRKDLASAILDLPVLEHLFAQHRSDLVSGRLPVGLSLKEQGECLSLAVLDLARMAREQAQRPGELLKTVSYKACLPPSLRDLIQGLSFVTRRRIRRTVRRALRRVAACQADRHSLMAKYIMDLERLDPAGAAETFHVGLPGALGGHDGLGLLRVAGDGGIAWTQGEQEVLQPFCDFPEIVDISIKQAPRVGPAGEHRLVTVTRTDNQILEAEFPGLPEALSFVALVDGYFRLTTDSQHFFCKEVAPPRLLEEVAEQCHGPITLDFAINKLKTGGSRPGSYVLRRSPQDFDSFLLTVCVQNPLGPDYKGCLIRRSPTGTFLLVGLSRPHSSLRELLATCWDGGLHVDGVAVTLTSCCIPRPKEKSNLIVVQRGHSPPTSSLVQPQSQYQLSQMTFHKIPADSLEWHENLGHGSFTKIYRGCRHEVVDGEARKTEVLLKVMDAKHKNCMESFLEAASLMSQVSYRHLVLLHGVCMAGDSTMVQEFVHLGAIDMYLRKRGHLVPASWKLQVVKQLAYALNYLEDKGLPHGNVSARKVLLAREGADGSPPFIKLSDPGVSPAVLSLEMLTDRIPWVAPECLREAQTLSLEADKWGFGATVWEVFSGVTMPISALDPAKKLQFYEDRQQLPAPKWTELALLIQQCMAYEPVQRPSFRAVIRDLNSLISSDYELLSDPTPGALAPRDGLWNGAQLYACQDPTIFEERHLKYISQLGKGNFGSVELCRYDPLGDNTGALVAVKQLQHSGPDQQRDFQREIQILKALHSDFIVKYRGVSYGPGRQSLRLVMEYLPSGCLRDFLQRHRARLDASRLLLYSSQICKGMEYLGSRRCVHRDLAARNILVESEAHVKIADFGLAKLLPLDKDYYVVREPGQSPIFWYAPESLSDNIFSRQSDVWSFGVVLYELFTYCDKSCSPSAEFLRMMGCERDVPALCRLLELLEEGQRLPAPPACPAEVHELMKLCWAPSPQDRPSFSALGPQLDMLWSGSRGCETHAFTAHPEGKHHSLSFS
Text: as §1, §2, §3, §4, §5
as §6, with “JAK3” for “JAK2”, “10” for “25”, “2.5” for “5”, “PV4080).” for “PV4288).”

Human Tyk2 kinase domain = biological target: T3, Human Tyk2 kinase domain (Homo sapiens, UniProt P29597); assay: Tyk2 Inhibition Assay (Omnia kinase fluorescence peptide substrate); conditions: averaged IC50 ranges; 10 μM (Km app) or 1 mM ATP, 2 nM Tyk2
T3 construct: comprising amino acids 886 to 1187; His10 (10 histidine residues) (C, cleaved yes); made in house
T3 sequence (P29597 886-1187): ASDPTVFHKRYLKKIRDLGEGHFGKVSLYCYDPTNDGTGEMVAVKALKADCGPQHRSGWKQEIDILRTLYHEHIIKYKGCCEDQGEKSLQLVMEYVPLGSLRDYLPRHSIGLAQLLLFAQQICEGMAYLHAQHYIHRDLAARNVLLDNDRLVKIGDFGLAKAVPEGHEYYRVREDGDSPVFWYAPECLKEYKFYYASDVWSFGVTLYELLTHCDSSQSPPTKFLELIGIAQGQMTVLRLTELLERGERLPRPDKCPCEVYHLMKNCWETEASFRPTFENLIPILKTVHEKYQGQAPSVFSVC
Text: as §1, §2, §3, §4, §5
Compounds of Formula I were screened for their ability to inhibit Tyk2 using the general enzyme inhibition assay method, in which the assay mixture contained 10 μM (Km app) or 1 mM ATP, 8 μM Omnia® Y12 peptide (Catalog #IVGN KPZ3121C; Invitrogen Corporation, Carlsbad, Calif.) and 2 nM Tyk2 in a total volume of 20 μL. Human Tyk2 kinase domain, comprising amino acids 886 to 1187 with 10 additional histidine residues (histidine tag) on the carboxy terminus, was expressed and purified from bacculovirus in-house at Array BioPharma Inc. (Boulder, Colo.). The histidine tag was cleaved after purification using standard conditions.

JAK1 = biological target: T4, JAK1 (Homo sapiens, UniProt P23458); assay: JAK1 Inhibition Assay (Omnia kinase fluorescence peptide substrate); conditions: averaged IC50 ranges; 40 μM (Km app) or 1 mM ATP, 15 nM JAK1
T4 construct: purchased Invitrogen Corporation, Carlsbad, Calif; IVGN PV4775
Text: as §1, §2, §3, §4, §5
Compounds of Formula I were screened for their ability to inhibit JAK1 using the general enzyme inhibition assay method, in which the assay mixture contained 40 μM (Km app) or 1 mM ATP, 8 μM Omnia® Y12 peptide (Catalog #IVGN KPZ3121C; Invitrogen Corporation, Carlsbad, Calif.) and 15 nM JAK1 in a total volume of 20 μL. JAK1 was purchased from Invitrogen Corporation, Carlsbad, Calif. (catalog #IVGN PV4775).

T4 sequence (P23458 whole entry): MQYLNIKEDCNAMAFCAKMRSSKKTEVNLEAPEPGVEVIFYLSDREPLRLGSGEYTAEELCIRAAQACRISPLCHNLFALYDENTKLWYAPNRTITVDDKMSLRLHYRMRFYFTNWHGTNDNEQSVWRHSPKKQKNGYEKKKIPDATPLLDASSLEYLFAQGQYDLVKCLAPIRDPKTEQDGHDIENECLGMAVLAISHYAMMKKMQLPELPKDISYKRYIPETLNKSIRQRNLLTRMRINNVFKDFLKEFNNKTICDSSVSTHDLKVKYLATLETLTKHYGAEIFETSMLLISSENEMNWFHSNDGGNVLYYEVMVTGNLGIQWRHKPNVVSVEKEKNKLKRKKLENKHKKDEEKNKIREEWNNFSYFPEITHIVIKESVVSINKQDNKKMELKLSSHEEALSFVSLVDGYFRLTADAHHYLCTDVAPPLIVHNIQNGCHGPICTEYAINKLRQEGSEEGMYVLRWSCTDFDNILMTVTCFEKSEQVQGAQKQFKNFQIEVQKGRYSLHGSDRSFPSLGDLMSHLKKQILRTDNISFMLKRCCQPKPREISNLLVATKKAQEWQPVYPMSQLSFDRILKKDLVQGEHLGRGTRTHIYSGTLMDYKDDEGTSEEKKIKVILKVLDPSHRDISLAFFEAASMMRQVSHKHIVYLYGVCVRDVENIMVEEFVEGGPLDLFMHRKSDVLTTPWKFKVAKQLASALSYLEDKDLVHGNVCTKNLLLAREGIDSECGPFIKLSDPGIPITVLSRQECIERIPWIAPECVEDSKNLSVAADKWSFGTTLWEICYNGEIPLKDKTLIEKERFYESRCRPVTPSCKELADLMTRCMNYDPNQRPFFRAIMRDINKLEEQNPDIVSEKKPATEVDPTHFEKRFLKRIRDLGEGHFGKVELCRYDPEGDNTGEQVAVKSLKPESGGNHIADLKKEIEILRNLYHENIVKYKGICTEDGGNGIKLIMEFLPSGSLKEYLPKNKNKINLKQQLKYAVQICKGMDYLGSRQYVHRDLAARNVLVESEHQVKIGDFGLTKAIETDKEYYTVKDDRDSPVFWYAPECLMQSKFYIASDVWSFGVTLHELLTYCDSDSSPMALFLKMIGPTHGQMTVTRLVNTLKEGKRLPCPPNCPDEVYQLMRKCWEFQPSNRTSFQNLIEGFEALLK
T1 sequence (O60674 whole entry): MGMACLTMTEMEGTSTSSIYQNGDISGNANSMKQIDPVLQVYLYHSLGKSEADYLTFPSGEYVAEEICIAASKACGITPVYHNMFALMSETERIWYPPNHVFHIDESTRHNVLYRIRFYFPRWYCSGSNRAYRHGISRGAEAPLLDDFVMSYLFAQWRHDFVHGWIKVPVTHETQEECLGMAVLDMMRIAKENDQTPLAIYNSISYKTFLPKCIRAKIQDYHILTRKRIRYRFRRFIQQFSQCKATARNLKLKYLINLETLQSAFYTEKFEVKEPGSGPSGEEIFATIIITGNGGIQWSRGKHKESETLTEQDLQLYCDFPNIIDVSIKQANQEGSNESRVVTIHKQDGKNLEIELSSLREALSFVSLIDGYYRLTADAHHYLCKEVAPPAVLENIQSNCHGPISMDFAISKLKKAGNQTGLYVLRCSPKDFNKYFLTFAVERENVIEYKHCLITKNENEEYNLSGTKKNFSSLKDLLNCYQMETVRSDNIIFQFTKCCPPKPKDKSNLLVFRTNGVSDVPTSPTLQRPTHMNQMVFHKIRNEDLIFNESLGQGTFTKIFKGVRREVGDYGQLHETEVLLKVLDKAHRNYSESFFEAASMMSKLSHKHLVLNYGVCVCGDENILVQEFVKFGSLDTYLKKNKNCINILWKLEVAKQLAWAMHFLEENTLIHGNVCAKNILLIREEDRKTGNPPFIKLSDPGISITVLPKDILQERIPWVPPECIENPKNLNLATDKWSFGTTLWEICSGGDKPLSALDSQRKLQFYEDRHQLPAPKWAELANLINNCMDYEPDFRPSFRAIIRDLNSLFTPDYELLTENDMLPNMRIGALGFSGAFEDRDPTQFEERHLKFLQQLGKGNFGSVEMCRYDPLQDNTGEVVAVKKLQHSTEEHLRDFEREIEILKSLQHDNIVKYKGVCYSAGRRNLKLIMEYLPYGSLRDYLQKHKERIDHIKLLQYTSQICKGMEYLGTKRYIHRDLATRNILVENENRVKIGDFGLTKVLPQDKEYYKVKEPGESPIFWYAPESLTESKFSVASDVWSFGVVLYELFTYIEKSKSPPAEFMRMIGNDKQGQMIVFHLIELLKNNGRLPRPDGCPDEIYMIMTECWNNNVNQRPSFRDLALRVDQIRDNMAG

Row | Compound | IC50 (JAK2) [nM] | IC50 (JAK3) [nM] | IC50 (Human Tyk2 kinase domain) [nM] | IC50 (JAK1) [nM]
1 | CCOC(=O)CC(C1CC1)n1cc(-c2nc(-c3cnn(C)c3)cc3nccn23)cn1 (centres unmarked) [Example 12, Ethyl 3-cyclopropyl-3-(4-(7-(1-methyl-1H-pyrazol-4-yl)imidazo[1,2-c]pyrimidin-5-yl)-1H-pyrazol-1-yl)propanoate] | > 1000 | > 1000 | 100 to 1000 | > 1000
2 | CCC1(n2cc(-c3nc(-c4cnn(C)c4)cc4nccn34)cn2)CN(S(=O)(=O)C(F)(F)F)C1 [Example 20, 5-(1-(3-ethyl-1-(trifluoromethylsulfonyl)azetidin-3-yl)-1H-pyrazol-4-yl)-7-(1-methyl-1H-pyrazol-4-yl)imidazo[1,2-c]pyrimidine] | 10 to 100 | 100 to 1000 | 10 to 100 | 100 to 1000
3 | Cn1cc(-c2cc3nccn3c(-c3cnn(C4(CC(C)(C)O)CN(S(=O)(=O)C(F)(F)F)C4)c3)n2)cn1 [Example 94, 2-methyl-1-(3-(4-(7-(1-methyl-1H-pyrazol-4-yl)imidazo[1,2-c]pyrimidin-5-yl)-1H-pyrazol-1-yl)-1-((trifluoromethyl)sulfonyl)azetidin-3-yl)propan-2-ol] | 100 to 1000 | > 1000 | 100 to 1000 | 100 to 1000
4 | COCCC(C1CC1(F)F)n1cc(-c2nc(-c3cnn(C)c3)cc3nccn23)cn1 (centres unmarked) [Example 31] | 100 to 1000 | 100 to 1000 | 100 to 1000 | 100 to 1000
5 | Cn1cc(-c2cc3nccn3c(-c3cnn(C4(CCF)CN(S(=O)(=O)CC(F)(F)F)C4)c3)n2)cn1 [Example 86, 5-(1-(3-(2-fluoroethyl)-1-((2,2,2-trifluoroethyl)sulfonyl)azetidin-3-yl)-1H-pyrazol-4-yl)-7-(1-methyl-1H-pyrazol-4-yl)imidazo[1,2-c]pyrimidine] | 100 to 1000 | > 1000 | 100 to 1000 | > 1000
6 | CSCCC(C1CC1)n1cc(-c2nc(-c3cnn(C)c3)cc3nccn23)cn1 (centres unmarked) [Example 62, 5-(1-(1-cyclopropyl-3-(methylthio)propyl)-1H-pyrazol-4-yl)-7-(1-methyl-1H-pyrazol-4-yl)imidazo[1,2-c]pyrimidine] | 10 to 100 | 100 to 1000 | 10 to 100 | 100 to 1000
7 | Cn1cc(-c2cc3nccn3c(-c3cnn(C(CCF)C4CCCC4)c3)n2)cn1 (centres unmarked) [Example 66, 5-(1-(1-cyclopentyl-3-fluoropropyl)-1H-pyrazol-4-yl)-7-(1-methyl-1H-pyrazol-4-yl)imidazo[1,2-c]pyrimidine] | 10 to 100 | 100 to 1000 | < 10 | 100 to 1000
8 | O=S(=O)(N1CC(CCF)(n2cc(-c3nc(-c4cn[nH]c4)cc4nccn34)cn2)C1)C(F)(F)F [Example 78, 5-(1-(3-(2-fluoroethyl)-1-((trifluoromethyl)sulfonyl)azetidin-3-yl)-1H-pyrazol-4-yl)-7-(1H-pyrazol-4-yl)imidazo[1,2-c]pyrimidine] | 10 to 100 | 100 to 1000 | < 10 | 10 to 100
9 | C#CCC(C1CC1)n1cc(-c2nc(-c3cnn(C)c3)cc3nccn23)cn1 (centres unmarked) [Example 55, 5-(1-(1-cyclopropylbut-3-yn-1-yl)-1H-pyrazol-4-yl)-7-(1-methyl-1H-pyrazol-4-yl)imidazo[1,2-c]pyrimidine] | 10 to 100 | 100 to 1000 | < 10 | 100 to 1000
10 | CC(=O)N1CC(CCF)(n2cc(-c3nc(-c4cnn(C)c4)cc4nccn34)cn2)C1 [Example 96, 1-(3-(2-fluoroethyl)-3-(4-(7-(1-methyl-1H-pyrazol-4-yl)imidazo[1,2-c]pyrimidin-5-yl)-1H-pyrazol-1-yl)azetidin-1-yl)ethanone] | > 1000 | > 1000 | > 1000 | > 1000
11 | Cn1cc(-c2cc3nccn3c(-c3cnn(C4(CCF)CN(S(=O)(=O)NC5CC5)C4)c3)n2)cn1 [Example 46, N-cyclopropyl-3-(2-fluoroethyl)-3-(4-(7-(1-methyl-1H-pyrazol-4-yl)imidazo[l,2-c]pyrimidin-5-yl)-1H-pyrazol-1-yl)azetidine-1-sulfonamide] | 100 to 1000 | > 1000 | 100 to 1000 | 100 to 1000
12 | Cn1cc(-c2cc3nccn3c(-c3ccn(C(CCF)C4CC4)c3)n2)cn1 (centres unmarked) [Example 25, 5-(1-(1-cyclopropyl-3-fluoropropyl)-1H-pyrrol-3-yl)-7-(1-methyl-1H-pyrazol-4-yl)imidazo[1,2-c]pyrimidine] | 10 to 100 | 10 to 100 | < 10 | 10 to 100
13 | Cn1cc(-c2cc3nccn3c(-c3ccn([C@H](CCF)[C@H]4CC4(F)F)c3)n2)cn1 [Example 29, 5-(1-((R)-1-((R)-2,2-difluorocyclopropyl)-3-fluoropropyl)-1H-pyrrol-3-yl)-7-(1-methyl-1H-pyrazol-4-yl)imidazo[1,2-c]pyrimidine] | 10 to 100 |  | < 10 | 
